Measured values from patent US20260007652A1, “Selective Modulators of AhR-Regulated Transcription and Method for Using Such Modulators to Treat Cancer” (OREGON STATE UNIVERSITY, priority 2022, published 2026).

What was measured:
[1] = tested on: MDA-MB-468 cells; experiment: Annexin-V apoptosis assay, MDA-MB-468 cells; type: cell-based, human; conditions: 10 μM, alone
Experimental: FIGS. 72A-72C presents the characterization of combinations on TNBC cell viability and cell death. Quantitation of Annexin-V staining of MDA-MB-468 cells treated with either 10 μM evoxine, 10 μM citropten, 0.25 μM 11-Cl-BBQ, or corresponding combinations for 72 hours (A and B, respectively). Quantifications represent averages of three independent experiments. C) Colony forming assay of MDA-MB-468 AhR-expressing and AhR KO cells treated with 100 nM Evoxine, 500 nM Citropten, […] 11-Cl-BBQ, or combinations of each compound with 11-Cl-BBQ.
Annexin-V staining was performed 48 hours post-treatment by harvesting cells (floating and attached) with trypsin, followed by addition of serum-containing media, and two washes with ice-cold PBS. Cells were stained with Annexin-V-PerCP conjugates (eBioscience, Waltham, MA, USA) for 15 minutes on ice before washing out residual stain and resuspending in 300 μL of binding buffer. 10,000 events were collected per sample. Data was acquired with a CytoFLEX S flow cytometer (Beckman Coulter, Brea, CA), and analyzed using the CytExpert software (Beckman Coulter).

[2] = tested on: cancer cell line; experiment: Cell viability of combinations of AhR ligand and synergizer (FIGS. 51, 52); type: cell-based; conditions: for cell viability, monotreatments: alone (FIG. 51); for cell viability, mono-applications: alone (FIG. 52)
Experimental: FIG. 51 provides data from cancer cell line trials using 11-Cl-BBQ alone, Evoxine alone, Citropten alone, and combinations comprising 11-Cl-BBQ and Citropten and 11-Cl-BBQ and Evoxine. […] The decrease in cell viability was more than additive. Specifically, for Evoxine in combination with Analog 523, the reduction in cell viability was: 31% at 1 μM; 41% at 3 μM; and 42% at 10 μM. For Citropten in combination with Analog 523, the reduction in cell viability was: 16% at 1 μM; 34% at 3 μM; and 43% at 10

[3] = tested on: HepG2 cells; experiment: Colony forming assay, HepG2 cells; type: cell-based, human; conditions: 2.5 μM, alone
Experimental: FIGS. 75A-75C compare the effects of 11-Cl-BBQ and Evoxine in hepatoma: A) Mouse Hepa-1 cells were treated with 11-Cl-BBQ, Evoxine either alone or in combination for 48 hours before assessing cell viability using Cell-Titer Glo Viability Assay. B) Hepa-1 cells treated with Evoxine, 11-Cl-BBQ either alone or in combination for 48 hours with induction of cell death measured by Annexin-V staining and detection by flow cytometry. C) Colony forming assay of HepG2 human hepatocellular carcinoma cells seeded at 300 cell/well in a 24-well plate before treatment with 11-Cl-BBQ, Evoxine either alone or in combination at the indicated concentrations for two weeks, followed by fixation and staining with methylene blue. Quantitation of colonies is shown on the right.
Cells were seeded at a density of 500 cell/well in triplicate in 6-well plates, and the following day, cells were treated with compounds and allowed to incubate for 2-3 weeks before fixation with 50% ethanol/water solution containing 0.1% methylene blue overnight. Colonies were counted manually, or with OpenCFU colony counting software, Images were acquired on a ChemiDoc imaging instrument.

[4] = tested on: AhR; experiment: Xenobiotic response element (XRE) driven reporter in Hepa-1 cells, AhR activation; type: cell-based, mouse
Experimental: FIGS. 69A-69D show representative 11-Cl-BBQ analogs (848 and 849) as non-classical AHR ligands. (A) Stability of AHR protein in the H460 whole cell lysate in the presence or absence of 11-Cl-BBQ (5 μM), PRXS-848 (10 μM), and PRXS-849 (10 μM) at the indicated temperatures; GADPH was used as a loading control. (B) Localization of AHR protein in the H460 treated with 11-Cl-BBQ (100 nM), PRXS-848 (250 nM), PRXS-849 (250 nM), or vehicle control (0.1% DMSO) for two hours; top horizontal panel: AHR protein staining using an AHR-specific antibody conjugated with FITC (green) fluorophore; middle panel: DAPI staining; bottle panel: overlaid images from the top panel and the middle panel in the same column. (C) AHR activation (measured by XRE-luciferase reporter assay in Hepa1 cells) of the parental lead 11-Cl-BBQ and analogs PRXS-848 and PRXS-849 at the indicated concentrations for 16 hours. (D) AHR activation of 11-Cl-BBQ cotreated with a known AHR antagonist CH223191 (1 μM) or 11-Cl-BBQ analogs PRXS-848 and PRXS-849 at the indicated concentrations for 16 hours.
FIG. 76 presents representative AhR compounds (BBQ analogs) of the invention effective for activation of AhR transcription. Activation values greater than 1 at 100 nM were considered a hit with nanomolar affinity to promote AhR activity and synergize with the identified compounds from the synergy screens. Referring to FIG. 76, Fold@ 1 nM refers to activation of AhR transcription at 1 nM; Fold@100 nM refers to activation of AbR transcription at 100 nM; and Fold rel @ 100 refers to relative activation at 100 nM compared to parental compound, 11-Cl-BBQ. The representative AhR ligand compounds presented in FIG. 76 activate AhR transcription and therefore are useful as anti-cancer agents, either alone or in combination with the synergizing compounds (and chemotherapeutic agents) described herein.
was identified as a top hit compound based on its potent (>50% inhibition at 0.1 μM), and selective activity against AhR WT cells versus AhR KO cells (>70% difference between WT and KO cells at 10 μM) (FIG. 11). […] This confirmed Analog 523 activates AhR-mediated transcription and functions as an AhR ligand.

[5] = tested on: p53; experiment: Western blot of p53 protein levels in H460 cells; type: cell-based, human; conditions: TCDD 30 nM
Experimental: Whole cell lysate was prepared in RIPA lysis buffer with 1× Laemmli buffer, then denatured by heating at 100° C. for 5 minutes. Denatured proteins were separated in SDS-PAGE gel and transferred onto PVDF membrane. The PVDF membrane was incubated in TBST with 5% nonfat dry milk for one hour at room temperature prior to incubating with primary antibody of interest overnight at 4° C. with gentle rotation. Appropriate horse radish peroxidase conjugated secondary antibody was applied for one hour at room temperature. Signal was developed by applying SuperSignal West Pico chemiluminescence substrate and captured using the ChemiDoc imaging instrument. Primary antibodies used in this study: anti-AHR antibody (BML-SA210-Enzo Biochem, Farmingdale, NY), anti-p27^Kip1 antibody (610242-BD Biosciences), anti-p53 antibody (DO-1 sc-126-Santa Cruz Biotechnology, Dallas, TX), anti-p21 antibody (2947S-Cell Signaling Technology, Danvers, MA), and anti-GAPDH antibody (sc-36502, Santa Cruz).

[6] = tested on: H460 cells; experiment: Senescence-associated beta-galactosidase staining, H460 cells; type: cell-based, human; conditions: Dox 50 nM, 5 days
Experimental: H460 cells were seeded at 2×10^5 cells/well in 6-well plate overnight and treated with indicated compounds for 5 days. Media and treatments were refreshed on the […]. Cells were stained for senescence-associated β-galactosidase (SA-βgal) using 5-dodecanoylaminofluorescein di-β-D-galactopyranoside (C12FDG). Briefly, media were aspirated and replaced with fresh media containing 0.1 μM bafilomycin A1 (Calbiochem) and incubated for 1 hour in cell culture incubator. C12FDG (Setare Biotech) was added with a final concentration of 33 μM and incubated for another hour. Fluorescent signal was recorded using CytoFlex S cytometer for 10,000 cells per sample.

Row | SMILES | apoptotic response (Annexin-V staining) [1] | cell viability, monotreatments [2] | cell viability, mono-applications [2] | activation of AhR transcription (FIG. 76) [4] | also measured
1 | COc1cc(OC)c2ccc(=O)oc2c1 [Citropten, citropten] | 2.7% | little effect | largely ineffective in reducing cell viability |  | 
2 | COc1c2ccoc2nc2c(OC)c(OC[C@@H](O)C(C)(C)O)ccc12 [Evoxine] | 0.5% | little effect | largely ineffective in reducing cell viability |  | HepG2 colony formation [3]: little effect on colony formation inhibition
3 | COC(=O)c1ccc2c(c1)nc(-c1cccc3ccccc13)n2C(=O)c1ccc(F)c(F)c1 [PRXS-848] |  |  |  | did not activate AhR | 
4 | COC(=O)c1ccc2nc(-c3cccc4ccccc34)n(C(=O)c3ccc(F)c(F)c3)c2c1 [PRXS-849] |  |  |  | did not activate AhR | 
5 | Clc1cc2c(cc1Cl)Oc1cc(Cl)c(Cl)cc1O2 [TCDD, reference compound] |  |  |  |  | expression of p53 protein [5]: not altered
6 | COc1cccc2c1C(=O)c1c(O)c3c(c(O)c1C2=O)C[C@@](O)(C(=O)CO)C[C@@H]3O[C@H]1C[C@H](N)[C@H](O)[C@H](C)O1 [doxorubicin, reference compound] |  |  |  |  | SA-β-gal expression [6]: induced SA-β-gal expression independent of the AhR status
